Here are results for one molecule from article PMC7594840, “Identification of histone deacetylase inhibitors with (arylidene)aminoxy scaffold active in uveal melanoma cell lines” (Journal of Enzyme Inhibition and Medicinal Chemistry, 2020).

Assay [1] concerns HeLa nuclear extract containing a mixture of HDACs. Put plainly: HDAC Fluorimetric Assay/Drug Discovery Kit (BIOMOL) on HeLa nuclear extract. The assay is classed as biochemical.
Description: The hydroxamic acids 1a–c, 2a–f and carboxylic acids 3a–c, 4a––e synthesised in this study were preliminarily tested on a HeLa nuclear extract containing a mixture of HDACs, by using a commercially available HDAC assay kit (BIOMOL). SAHA and Trichostatin A (TSA) were used as positive controls.
HDAC inhibitory activity of newly synthesised compounds was evaluated using an HDAC Fluorimetric Assay/Drug Discovery Kit (AK-500, BIOMOL). […] Reactions were stopped after 30 min by adding Fluor de Lys^TM Developer. After the addition of this developer, the plate was incubated at room temperature for 15 min, the fluorescence intensity of the wells was measured on a fluorometric plate reader with excitation set at 360 nm and emission detection set at 460 nm.
For assay [2], the target named is T1, HDAC1 (Homo sapiens, UniProt Q13547).
T1 construct: purchased BPS Bioscience
Put plainly: Microfluidic chip-based HDAC inhibition assay (Calliper off-chip mobility shift), HDAC1. The following applies: duplicate, 10-point dose curve, 3-fold serial dilution from 30 μM. In kind it is biochemical.
Description: (§8) Test compounds were screened against human histone deacetylases (HDACs) 1, 3, 6, and 8 using the Calliper off-chip mobility shift assay technology. All HDACs were purchased from BPS Bioscience and four selective substrates were used according to the targeted isozyme. […] Buffers components, except for CR-3 (LabChip Coating Reagent 3, purchased from PerkinElmer, Product Number 760050) and Panobinostat (LBH589, purchased from ApexBio Technology)[35]^,[36] were purchased from Sigma Aldrich. […] (all purchased from Selleck Chemicals).

Assay [3] deals with T2, HDAC3 (Homo sapiens, UniProt O15379).
T2 construct: purchased BPS Bioscience
Put plainly: Microfluidic chip-based HDAC inhibition assay (Calliper off-chip mobility shift), HDAC3. In kind it is biochemical. The following applies: duplicate, 10-point dose curve, 3-fold serial dilution from 30 μM; SAHA 15-point dose curve.
Description: as §8

Assay [4] concerns the target T3, HDAC6 (Homo sapiens, UniProt Q9UBN7).
T3 construct: purchased BPS Bioscience
T3 sequence (Q9UBN7 1-1215): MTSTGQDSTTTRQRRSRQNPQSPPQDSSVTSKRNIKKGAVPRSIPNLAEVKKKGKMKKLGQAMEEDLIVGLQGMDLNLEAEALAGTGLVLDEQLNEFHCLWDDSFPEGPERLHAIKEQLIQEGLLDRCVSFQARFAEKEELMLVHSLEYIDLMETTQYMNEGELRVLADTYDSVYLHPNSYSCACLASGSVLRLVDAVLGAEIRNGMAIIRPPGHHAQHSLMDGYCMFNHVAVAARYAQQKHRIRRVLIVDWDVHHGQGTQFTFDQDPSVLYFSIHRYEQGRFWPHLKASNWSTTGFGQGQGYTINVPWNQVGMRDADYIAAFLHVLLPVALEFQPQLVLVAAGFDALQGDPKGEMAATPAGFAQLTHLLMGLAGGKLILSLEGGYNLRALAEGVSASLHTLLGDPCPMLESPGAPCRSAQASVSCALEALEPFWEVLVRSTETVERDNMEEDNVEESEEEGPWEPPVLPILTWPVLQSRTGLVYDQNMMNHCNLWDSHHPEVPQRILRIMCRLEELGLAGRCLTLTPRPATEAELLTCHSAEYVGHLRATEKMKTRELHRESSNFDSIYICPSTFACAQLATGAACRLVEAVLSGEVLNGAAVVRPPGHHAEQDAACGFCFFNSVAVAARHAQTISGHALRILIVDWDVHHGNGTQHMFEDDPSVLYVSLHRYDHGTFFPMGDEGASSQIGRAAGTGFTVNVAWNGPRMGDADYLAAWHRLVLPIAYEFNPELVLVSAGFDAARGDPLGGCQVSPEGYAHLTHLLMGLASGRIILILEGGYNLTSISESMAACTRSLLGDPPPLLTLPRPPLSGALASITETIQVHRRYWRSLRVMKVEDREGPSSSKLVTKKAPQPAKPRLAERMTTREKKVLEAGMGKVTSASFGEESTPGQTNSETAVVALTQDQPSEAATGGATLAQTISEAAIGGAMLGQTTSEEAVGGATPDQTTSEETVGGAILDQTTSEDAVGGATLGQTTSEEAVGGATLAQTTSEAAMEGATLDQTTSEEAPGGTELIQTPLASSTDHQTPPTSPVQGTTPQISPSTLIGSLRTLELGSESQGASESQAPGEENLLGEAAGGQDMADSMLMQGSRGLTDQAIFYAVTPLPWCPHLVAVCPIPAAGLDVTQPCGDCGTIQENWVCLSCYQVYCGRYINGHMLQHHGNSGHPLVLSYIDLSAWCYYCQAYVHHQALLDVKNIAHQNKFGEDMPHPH
Description: Microfluidic chip-based HDAC inhibition assay (Calliper off-chip mobility shift), HDAC6. The assay is classed as biochemical. As to conditions: duplicate, 10-point dose curve, 3-fold serial dilution from 30 μM; SAHA 15-point dose curve; read-out: IC50 HDAC6.
Description: as §8

The target in assay [5] is T4, HDAC8 (Homo sapiens, UniProt Q9BY41).
T4 construct: purchased BPS Bioscience
T4 sequence (Q9BY41 1-377): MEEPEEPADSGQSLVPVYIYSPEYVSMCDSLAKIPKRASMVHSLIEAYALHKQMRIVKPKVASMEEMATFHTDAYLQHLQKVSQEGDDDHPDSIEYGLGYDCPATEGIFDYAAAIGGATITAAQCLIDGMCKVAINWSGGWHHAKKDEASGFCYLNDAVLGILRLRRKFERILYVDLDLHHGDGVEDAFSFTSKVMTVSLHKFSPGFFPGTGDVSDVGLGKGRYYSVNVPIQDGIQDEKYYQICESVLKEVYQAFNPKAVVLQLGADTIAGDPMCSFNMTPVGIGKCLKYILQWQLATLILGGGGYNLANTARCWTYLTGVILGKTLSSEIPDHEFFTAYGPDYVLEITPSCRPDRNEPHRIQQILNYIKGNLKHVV
Description: Microfluidic chip-based HDAC inhibition assay (Calliper off-chip mobility shift), HDAC8. The assay is classed as biochemical. As to conditions: duplicate, 10-point dose curve, 3-fold serial dilution from 30 μM.
Description: as §8

Assay [6] deals with 92.1 cells. Description: MTT cell viability assay, UM cell line 92.1. The assay is classed as cell-based, human. As to conditions: 72 h treatment, compared with SAHA and LD10. The method, then: (§1) The anti-proliferative effects of the most promising HDAC inhibitors, VS16, VS13, SN2, and LD10 were evaluated on human UM cell lines (92.1 and Mel270) and SAHA was used as a positive control. First, we assessed by MTT assay the cell viability after a 72 h treatment at different concentrations. […] Similar results were found for ovarian carcinoma cell line A2780 and to a lesser extent for SKOV3 (Supplementary Figure S2).
(§2) Figure 7. MTT. In vitro cytotoxicity at the 72 h time point of the different compounds in human UM cell lines 92.1 and Mel270, as assessed by the MTT cell viability assay. Data are expressed as percent of control with the DMSO solvent, which was used at the same amount present in the highest compound concentration. Error bars represent SD of quadruplicates. One representative experiment is shown.
(§3) Treatments with the compounds were performed with slight differences, according to the final use of the samples. For the cell viability assay with MTT, cells were seeded in 96-well flat-bottom plates in culture medium at 5 × 10^3 cells/well, whereas for cell cycle analysis and QRT-PCR cells were seeded in 24-well plates at 5 × 10^4 cells/well. The day after, a culture medium containing the appropriate amount of compounds or their solvent control DMSO was added, and treatments were carried out for the indicated time.
(§4) Cell viability after treatment was evaluated by a microculture tetrazolium reduction assay using MTT [3–(4,5-dimethyltiazol-2-yl) 2,5-diphenyltetrazolium bromide; Sigma]. At 72 h of treatment, 20 μl of MTT stock solution (2 mg/ml in PBS) were added to 200 μl cell cultures for an additional 4 h of incubation. MTT-containing culture medium was then removed and precipitated formazan was dissolved in 100 μl of DMSO. Results were read within 15 min in a microplate reader spectrometer at 540 nm (MEDGENIX 400 ATC, Medgenix Diagnostics), and the means of quadruplicates were calculated. Cell survival was expressed as a percentage of control samples.
On the technique in general: Formazan colour is commonly taken as a measure of viable cells.

In assay [7] the test system is Mel270 cells. Put plainly: MTT cell viability assay, UM cell line Mel270. The assay is classed as cell-based, human. The following applies: 72 h treatment, compared with SAHA and LD10. The method, then: as §1, §2, §3, §4
Assay [8] concerns 92.1 cells. Description: Cell cycle distribution by flow cytometry (PI), 92.1 cells. In kind it is cell-based, human. The following applies: 10 µM compound, 48 h. The method, then: (§5) We then investigated whether this anti-proliferative effect was due to the blockade in the G0/G1 phase of the cell cycle, as expected for SAHA[31].
(§6) Figure 8. Influence of the different compounds and DMSO solvent control on cell cycle distribution in UM 92.1 and Mel270 cells. The cells were treated with 10 µM compound for 48 h and cell cycle distribution was analysed by flow cytometry after fixation and staining with PI. The percentage of cells in each category is indicated. One representative experiment is shown.
as §3
(§7) To assess the cell cycle status of treated samples, after 48 h of incubation the cells were harvested, washed twice with cold PBS, and fixed in 70% ethyl alcohol at −20 °C overnight. The day after, the samples were washed with cold PBS and incubated for 20 min with propidium iodide (PI) staining solution (50 μg/ml PI, 0.05% Triton X-100, 0.2 mg/ml RNase A in PBS) at room temperature. Flow cytometric analysis of DNA content was performed using a FACScan flow cytometer with the CellQuest software (BD Biosciences). Gating on viable cells was performed using physical parameters and 10^4 gated events were acquired. Cell cycle analysis on the gated PI distribution was performed using Modfit software.
A general note: In flow cytometry, cells or beads pass a laser one at a time.

Assay [9] has as its system Mel270 cells. Description: Cell cycle distribution by flow cytometry (PI), Mel270 cells. The following applies: 10 µM compound, 48 h. In kind it is cell-based, human. The procedure:
as §5, §6, §3, §7

T1 sequence (Q13547 whole entry): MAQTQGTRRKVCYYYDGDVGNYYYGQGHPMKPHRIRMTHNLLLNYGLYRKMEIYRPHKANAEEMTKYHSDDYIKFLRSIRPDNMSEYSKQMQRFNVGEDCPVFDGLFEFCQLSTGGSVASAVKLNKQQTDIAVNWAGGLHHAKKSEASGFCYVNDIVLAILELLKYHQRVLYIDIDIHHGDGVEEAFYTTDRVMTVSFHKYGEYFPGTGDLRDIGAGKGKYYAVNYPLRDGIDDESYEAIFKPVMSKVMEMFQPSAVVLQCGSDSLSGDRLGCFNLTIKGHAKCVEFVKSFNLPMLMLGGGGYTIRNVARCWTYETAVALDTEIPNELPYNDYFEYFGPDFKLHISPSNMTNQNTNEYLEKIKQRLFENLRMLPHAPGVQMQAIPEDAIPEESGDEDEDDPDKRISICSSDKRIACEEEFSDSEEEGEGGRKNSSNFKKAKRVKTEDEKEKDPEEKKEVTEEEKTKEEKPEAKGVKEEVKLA
T2 sequence (O15379 whole entry): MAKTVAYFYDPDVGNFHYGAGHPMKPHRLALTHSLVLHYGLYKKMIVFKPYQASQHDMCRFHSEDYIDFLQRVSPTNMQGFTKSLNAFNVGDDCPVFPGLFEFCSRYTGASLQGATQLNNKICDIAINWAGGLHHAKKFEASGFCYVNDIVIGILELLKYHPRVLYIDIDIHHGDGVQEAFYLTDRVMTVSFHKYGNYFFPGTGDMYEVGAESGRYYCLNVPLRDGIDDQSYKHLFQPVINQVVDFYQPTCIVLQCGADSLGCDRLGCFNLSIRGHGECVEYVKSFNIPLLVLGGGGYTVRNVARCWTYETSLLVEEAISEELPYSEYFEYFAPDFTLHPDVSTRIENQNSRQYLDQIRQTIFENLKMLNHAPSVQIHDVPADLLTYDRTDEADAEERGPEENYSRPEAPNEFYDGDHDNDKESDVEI
T2 sequence (Q9Y618 395-489 partner limits assumed): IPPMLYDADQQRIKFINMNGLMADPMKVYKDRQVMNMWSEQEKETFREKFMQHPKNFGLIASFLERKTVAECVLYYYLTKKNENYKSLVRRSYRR

As usually defined, the IC50 is the concentration needed to halve the response being measured. With `C/C(=N\OCCCCC(=O)NO)c1ccc(-c2ccccc2)cc1` [Compound 2e, (E)-5-(((1-([1,1′-biphenyl]-4-yl)ethylidene)amino)oxy)-N-hydroxypentanamide], in assay [1] (HeLa extract IC50 compared with SAHA), the “folds more potent than SAHA” value is recorded as 3- to 5 fold. The IC50 in [1] (means of at least three experiments, SD <20% of the mean) stood at 53 nM; in [2] it was 593 nM; in [3] it was 43 nM; in assay [4] it was 406 nM; in assay [5], 13.7 µM. For the same molecule, the “effect on cell viability (MTT)” value in assay [6] and in assay [7] was “stronger effect” in each case. Besides, the “effect on cell cycle distribution” value in assay [8] and in assay [9] was “efficiently block the cell cycle at the G0/G1 phase” each time.
